Source: PubChem BioAssay AID328 (DTP/NCI, 2004)
“And” between values parts separate entries of the source, which are not always exact repeats. Equal values may be shown once. Toxic doses and inconclusive results are not listed.

System: BDF1 mice, P388 leukemia ip, median survival T/C
Test: NCI In Vivo Anticancer Drug Screen. Data for tumor model P388 Leukemia (intraperitoneal) in B6D2F1 (BDF1) mice
Conditions: endpoint: median survival time, higher = longer survival
Summary of the method: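 Transplantable tumour in mice; compound vs vehicle dosing; survival scored; ratio of treated to control reported.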

[1] = dose: 12.5 mg/kg/injection, schedule: Q01DX009 (ip), vehicle: saline with Tween-80
[2] = dose: 25.0 mg/kg/injection, schedule: Q01DX009 (ip), vehicle: saline with Tween-80
[3] = dose: 50.0 mg/kg/injection, schedule: Q01DX009 (ip), vehicle: saline with Tween-80
[4] = dose: 6.25 mg/kg/injection, schedule: Q01DX009 (ip), vehicle: saline with Tween-80
[5] = dose: 100.0 mg/kg/injection, schedule: Q04DX003 (ip), vehicle: saline with Tween-80
[6] = dose: 400.0 mg/kg/injection, schedule: Q04DX003 (ip), vehicle: saline with Tween-80
[7] = dose: 100.0 mg/kg/injection, schedule: Q04DX003 (ip), vehicle: saline
[8] = dose: 100.0 mg/kg/injection, schedule: Q01DX009 (ip), vehicle: saline with Tween-80
[9] = dose: 200.0 mg/kg/injection, schedule: Q01DX009 (ip), vehicle: saline with Tween-80
[10] = dose: 400.0 mg/kg/injection, schedule: Q01DX009 (ip), vehicle: saline with Tween-80
[11] = dose: 200.0 mg/kg/injection, schedule: Q04DX003 (ip), vehicle: saline with Tween-80

SMILES: CCC(=O)O[C@H]1CC[C@H]2[C@@H]3CC(=C(Br)Br)C4=CC(=O)CC[C@]4(C)[C@H]3CC[C@]12C
- T/C [1]: 91 % of control
- T/C [2]: 100 % of control
- T/C [3]: 86 % of control and 90 % of control

SMILES: CCC(CO)NC(=O)Nc1cccc2ccccc12 (configuration not stated)
- T/C (dose: 100.0 mg/kg/injection, schedule: Q01DX001 (ip), vehicle: saline with Tween-80): 109 % of control
- T/C (dose: 200.0 mg/kg/injection, schedule: Q01DX001 (ip), vehicle: saline with Tween-80): 100 % of control
- T/C (dose: 400.0 mg/kg/injection, schedule: Q01DX001 (ip), vehicle: saline with Tween-80): 109 % of control

SMILES: CC(C)[C@]12O[C@H]1[C@@H]1O[C@]13[C@]1(O[C@H]1C[C@H]1C4=C(CC[C@@]13C)C(=O)OC4)[C@@H]2O
- T/C (dose: 26.0 micrograms/kg/injection, schedule: Q01DX009 (ip), vehicle: saline): 118 % of control
- T/C (dose: 40.0 micrograms/kg/injection, schedule: Q01DX009 (ip), vehicle: saline): 118 % of control
- T/C (dose: 60.0 micrograms/kg/injection, schedule: Q01DX009 (ip), vehicle: saline): 100 % of control
- T/C (dose: 89.0 micrograms/kg/injection, schedule: Q01DX009 (ip), vehicle: saline): 109 % of control
- T/C (dose: 133.0 micrograms/kg/injection, schedule: Q01DX009 (ip), vehicle: saline): 100 % of control

SMILES: FC(F)(F)C1=N/C(=C2\N=C(C(F)(F)F)N=C2Cl)C(Cl)=N1
- T/C (dose: 0.39 mg/kg/injection, schedule: Q04DX003 (ip), vehicle: saline with Tween-80): 100 % of control
- T/C (dose: 0.78 mg/kg/injection, schedule: Q04DX003 (ip), vehicle: saline with Tween-80): 114 % of control
- T/C (dose: 1.56 mg/kg/injection, schedule: Q01DX009 (ip), vehicle: saline with Tween-80): 104 % of control
- T/C (dose: 1.56 mg/kg/injection, schedule: Q04DX003 (ip), vehicle: saline with Tween-80): 100 % of control and 110 % of control
- T/C (dose: 3.12 mg/kg/injection, schedule: Q01DX009 (ip), vehicle: saline with Tween-80): 116 % of control
- T/C (dose: 3.12 mg/kg/injection, schedule: Q04DX003 (ip), vehicle: saline with Tween-80): 96 % of control and 100 % of control
- T/C [4]: 116 % of control
- T/C (dose: 6.25 mg/kg/injection, schedule: Q04DX003 (ip), vehicle: saline with Tween-80): 91 % of control and 100 % of control
- T/C [1]: 111 % of control
- T/C (dose: 12.5 mg/kg/injection, schedule: Q04DX003 (ip), vehicle: saline with Tween-80): 88 % of control
- T/C [2]: 94 % of control
- T/C (dose: 25.0 mg/kg/injection, schedule: Q04DX003 (ip), vehicle: saline with Tween-80): 88 % of control

SMILES: O=C1CN(C(=O)CN2C(=O)c3ccccc3C2=O)C2(CCCCC2)O1
- T/C [5]: 100 % of control
- T/C [6]: 100 % of control

SMILES: CC(C)c1ncc(CCCN=C(N)N)[nH]c1=O
- T/C (dose: 37.5 mg/kg/injection, schedule: Q01DX009 (ip), vehicle: saline): 98 % of control
- T/C (dose: 75.0 mg/kg/injection, schedule: Q01DX009 (ip), vehicle: saline): 94 % of control
- T/C (dose: 150.0 mg/kg/injection, schedule: Q01DX009 (ip), vehicle: saline): 90 % of control

SMILES: NC(=O)c1cn(C2OC(CO)C(O)C2O)c2ncn3ccnc3c12 (configuration not stated)
- T/C (dose: 6.25 mg/kg/injection, schedule: Q04DX003 (ip), vehicle: saline): 118 % of control
- T/C (dose: 25.0 mg/kg/injection, schedule: Q04DX003 (ip), vehicle: saline): 115 % of control
- T/C [7]: 118 % of control

SMILES: O=C(/C=C/c1cccc([N+](=O)[O-])c1)NCCBr
- T/C [7]: 90 % of control
- T/C (dose: 200.0 mg/kg/injection, schedule: Q04DX003 (ip), vehicle: saline): 100 % of control
- T/C (dose: 400.0 mg/kg/injection, schedule: Q04DX003 (ip), vehicle: saline): 100 % of control

SMILES: FC(F)(F)c1cccc(C(c2ccccc2)(c2ccccc2)n2cncn2)c1
- T/C [3]: 114 % of control
- T/C [8]: 109 % of control
- T/C [9]: 100 % of control

SMILES: CCOC(=O)C(Cc1ccc(N(CCCl)CCCl)cc1)NC(=O)C(CC(C)C)NC(C)=O (configuration not stated)
- T/C (dose: 5.0 mg/kg/injection, schedule: Q04DX003 (ip), vehicle: water): 114 % of control
- T/C (dose: 10.0 mg/kg/injection, schedule: Q04DX003 (ip), vehicle: water): 114 % of control
- T/C (dose: 40.0 mg/kg/injection, schedule: Q04DX003 (ip), vehicle: water): 121 % of control

SMILES: COC1C(=O)CCC2(CO2)C1(O)C1(C)OC1CCC(C)C (configuration not stated)
- T/C (dose: 22.0 mg/kg/injection, schedule: Q01DX009 (ip), vehicle: saline with Tween-80): 109 % of control
- T/C (dose: 44.0 mg/kg/injection, schedule: Q01DX009 (ip), vehicle: saline with Tween-80): 109 % of control
- T/C (dose: 87.5 mg/kg/injection, schedule: Q01DX009 (ip), vehicle: saline with Tween-80): 110 % of control and 118 % of control

SMILES: CSc1ncc(C)c[n+]1-c1ccccc1
- T/C (dose: 50.0 mg/kg/injection, schedule: Q04DX002 (ip), vehicle: saline with Tween-80): 106 % of control
- T/C (dose: 100.0 mg/kg/injection, schedule: Q04DX002 (ip), vehicle: saline with Tween-80): 107 % of control

SMILES: OCC1CC=CCC1 (configuration not stated)
- T/C (dose: 100.0 mg/kg/injection, schedule: Q01DX009 (ip), vehicle: saline): 114 % of control
- T/C (dose: 200.0 mg/kg/injection, schedule: Q01DX009 (ip), vehicle: saline): 109 % of control
- T/C (dose: 400.0 mg/kg/injection, schedule: Q01DX009 (ip), vehicle: saline): 119 % of control

SMILES: O=c1cc(CO)[nH]cc1O
- T/C (dose: 177.0 mg/kg/injection, schedule: Q01DX009 (ip), vehicle: Klucel (hydroxypropylcellulose) (HPC)): 119 % of control

SMILES: N=c1ccn2c(n1)OC1C(O)C(COS(=O)OC3C(CO)OC4C3Oc3nc(=N)ccn34)OC12 (configuration not stated)
- T/C [2]: 122 % of control
- T/C [8]: 161 % of control
- T/C [9]: 175 % of control

SMILES: CC(=O)OC(C(=O)N(c1ccccc1)c1ccccc1)c1ccccc1 (configuration not stated)
- T/C [8]: 92 % of control
- T/C [10]: 96 % of control

SMILES: CC(C)C(=O)OCC1OC(n2cnc3c(=S)nc[nH]c32)C(OC(=O)C(C)C)C1OC(=O)C(C)C (configuration not stated)
- T/C (dose: 88.0 mg/kg/injection, schedule: Q01DX009 (ip), vehicle: saline with Tween-80): 104 % of control
- T/C [8]: 118 % of control
- T/C (dose: 133.0 mg/kg/injection, schedule: Q01DX009 (ip), vehicle: saline with Tween-80): 95 % of control
- T/C [9]: 100 % of control
- T/C (dose: 300.0 mg/kg/injection, schedule: Q01DX009 (ip), vehicle: saline with Tween-80): 100 % of control
- T/C [10]: 100 % of control

SMILES: Nc1ccc(N2N=C(N3CCCC3)CC2=O)cc1
- T/C (dose: 50.0 mg/kg/injection, schedule: Q01DX005 (ip), vehicle: saline with Tween-80): 89 % of control
- T/C (dose: 100.0 mg/kg/injection, schedule: Q01DX005 (ip), vehicle: saline with Tween-80): 89 % of control
- T/C (dose: 200.0 mg/kg/injection, schedule: Q01DX005 (ip), vehicle: saline with Tween-80): 103 % of control

SMILES: O=[N+]([O-])c1cc([N+](=O)[O-])c(Nn2c3ccccc3c3ccccc32)c([N+](=O)[O-])c1
- T/C (dose: 6.25 mg/kg/injection, schedule: Q01DX009 (ip), vehicle: Klucel (hydroxypropylcellulose) (HPC)): 100 % of control
- T/C (dose: 12.5 mg/kg/injection, schedule: Q01DX009 (ip), vehicle: Klucel (hydroxypropylcellulose) (HPC)): 90 % of control and 100 % of control
- T/C (dose: 25.0 mg/kg/injection, schedule: Q01DX009 (ip), vehicle: Klucel (hydroxypropylcellulose) (HPC)): 100 % of control and 110 % of control
- T/C (dose: 50.0 mg/kg/injection, schedule: Q01DX009 (ip), vehicle: Klucel (hydroxypropylcellulose) (HPC)): 120 % of control
- T/C (dose: 100.0 mg/kg/injection, schedule: Q01DX009 (ip), vehicle: Klucel (hydroxypropylcellulose) (HPC)): 100 % of control
- T/C (dose: 100.0 mg/kg/injection, schedule: Q04DX003 (ip), vehicle: Klucel (hydroxypropylcellulose) (HPC)): 100 % of control
- T/C (dose: 200.0 mg/kg/injection, schedule: Q01DX009 (ip), vehicle: Klucel (hydroxypropylcellulose) (HPC)): 95 % of control
- T/C (dose: 200.0 mg/kg/injection, schedule: Q04DX003 (ip), vehicle: Klucel (hydroxypropylcellulose) (HPC)): 113 % of control

SMILES: CCOC(=O)C(=CN(C(C)C)C(C)C)C(=O)OCC
- T/C (dose: 50.0 mg/kg/injection, schedule: Q04DX003 (ip), vehicle: saline with Tween-80): 109 % of control
- T/C [5]: 104 % of control
- T/C [11]: 109 % of control

SMILES: NC(=S)N/N=C/C=C/c1ccccc1
- T/C (dose: 100.0 mg/kg/injection, schedule: Q04DX002 (ip), vehicle: Klucel (hydroxypropylcellulose) (HPC)): 96 % of control

SMILES: CC/C(C)=N\NC(=S)SC
- T/C (dose: 3.13 mg/kg/injection, schedule: Q01DX009 (ip), vehicle: saline with Tween-80): 98 % of control
- T/C [4]: 102 % of control
- T/C [1]: 102 % of control

SMILES: CN(C)N=Nc1ccc(NC(N)=O)cc1
- T/C (dose: 25.0 mg/kg/injection, schedule: Q04DX003 (ip), vehicle: saline + Tween-80 + alcohol): 112 % of control

SMILES: Cc1ccc(-c2nn3c(-c4ccccc4)nnc3o2)cc1
- T/C [5]: 110 % of control
- T/C [11]: 115 % of control
- T/C [6]: 105 % of control
